From patent US5710179A, “Antitumor agent” (priority 1995, dated 1998)
Counter-ions that a name gives are not always drawn.

What was measured:
human malignant tumors [1] = settings: Foods & Food Ingredients Journal of Japan, Vol.160 (1994); cited from earlier work
Meth A sarcoma = test: Antitumor activity on mouse with carcinoma (Meth A sarcoma, i.p., 40 days); format: in vivo, BALB/c male mice; settings: for Average day surviving: 40 days, control 28.1 ± 0.2; for Prolongation percentage of life (T/C %): control 100; for Number surviving after 40 days: group of 10, control 0
Method: About 1×10^6 cells/mouse of Meth A sarcoma was intraperitoneally injected into 8-week-old BALB/c male mice. From the next day after the administration, mice in a group of 10 were intraperitoneally injected twice a week with 0.2 ml of a physiological saline containing 0.0005, 0.005, 0.05 or 0.5 μg of any one of the compounds 1-5, and observed for 40 days. As a control, 0.2 ml/mouse/shot of physiological saline free of the compounds 1-5 was intraperitoneally injected to other groups of mice similarly as above.
Based on the data of the average day surviving (T) in the Groups of mice with the compounds 1-5 and the average day surviving (C) in the control group of mice, the prolongation percentage of life (T/C %) was calculated by the formula 1. [formula]

[2] = test system: Hep G2 cell (cancer of liver); test: Inhibition of tumor growth in nude mice, Hep G2; format: in vivo, human; settings: 0.05 μg/mouse s.c. twice a week
human malignant tumors [3] = test: Antitumor activity by the inhibition of tumor growth, nude mice, summary over human tumors; format: in vivo; settings: 0.05 μg s.c. twice a week
Method: Based on the data of Experiment 2, a minimum dose of the compounds 1-5 to a nude mouse was estimated to be about 0.05 μg/mouse/shot, and the antitumor activity of the compounds 1-5 was tested by administering them at the above dose to nude mice transplanted with human malignant tumors.
Thereafter mice, observed the tumor cells' insertion, were grouped in a group of 7 mice, then administered twice a week with 0.2 ml of a physiological saline containing 0.05 μg of the compound 2 to the dorsal subcutaneous tissues, and observed for 25 days. As a control, mice in other group were administered in the same administration schedule with 0.2 ml/shot of physiological saline free of the compound 2.
On the 27th day after the transplantation, tumor masses formed in the nude mice were extracted and weighed, on a wet cell basis, according to the method as disclosed by Y. Shimosato and N. Tamaoki in "Jingan-to-Nude-mouse (Human Cancer and Nude Mice)", pp. 321-323 (1982), published by Ishiyaku Publishers, Inc., Tokyo, Japan, and the percentage surviving (%) on the 35th day after the transplantation was calculated.

HLC-1 cell (lung cancer) = test: Inhibition of tumor growth in nude mice, HLC-1; format: in vivo, human; set-up: Average tumor weight, on a wet cell basis: unit not given here; settings: 0.05 μg/mouse s.c. twice a week
[4] = test system: HeLa cell (uterine cancer); test: Inhibition of tumor growth in nude mice, HeLa; format: in vivo, human; settings: 0.05 μg/mouse s.c. twice a week
HL-60 cell (leukemia) = test: Inhibition of tumor growth in nude mice, HL-60; format: in vivo, human; settings: 0.05 μg/mouse s.c. twice a week
[5] = test system: KB cell (rhinopharynx cancer); test: Inhibition of tumor growth in nude mice, KB; format: in vivo, human; settings: 0.05 μg/mouse s.c. twice a week
[6] = test system: Hep-2 cell (thyroid gland cancer); test: Inhibition of tumor growth in nude mice, Hep-2; format: in vivo, human; settings: 0.05 μg/mouse s.c. twice a week
[7] = test system: HGC-27 cell (gastric cancer); test: Inhibition of tumor growth in nude mice, HGC-27; format: in vivo, human; settings: 0.05 μg/mouse s.c. twice a week
[8] = test system: G-361 cell (malignant melanoma); test: Inhibition of tumor growth in nude mice, G-361; format: in vivo, human; settings: 0.05 μg/mouse s.c. twice a week
U-937 cell (lymphoma) = test: Inhibition of tumor growth in nude mice, U-937; format: in vivo, human; settings: 0.05 μg/mouse s.c. twice a week
[9] = test system: WiDr cell (rectum cancer); test: Inhibition of tumor growth in nude mice, WiDr; format: in vivo, human; settings: 0.05 μg/mouse s.c. twice a week
[10] = test system: RPMI 4788 cell (colon cancer); test: Inhibition of tumor growth in nude mice, RPMI 4788; format: in vivo, human; settings: 0.05 μg/mouse s.c. twice a week
[11] = 0.0005 μg/0.2 ml/mouse i.p. twice a week
[12] = 0.005 μg/0.2 ml/mouse i.p. twice a week
[13] = 0.05 μg/0.2 ml/mouse i.p. twice a week
[14] = 0.05 μg/0.2 ml/mouse i.p. twice a week, all marked * (significant, 5% level or lower vs control)
[15] = 0.5 μg/0.2 ml/mouse i.p. twice a week
[16] = 0.5 μg/0.2 ml/mouse i.p. twice a week, all marked * (significant, 5% level or lower vs control)

In the case of O=C(/C=C/c1ccc(O)c(O)c1)OCCc1ccccc1 [caffeic acid phenethyl ester], the “antitumor activity on human malignant tumors” value (human malignant tumors [1]) is listed as “exerted an antitumor activity”.

In the case of CC(C)=CCc1cc(/C=C/C(=O)O)cc(CC=C(C)C)c1O [compound 1, 3-[4-hydroxy-3,5-bis(3-methyl-2-butenyl)phenyl]-2-propenoic acid], the Average day surviving (Meth A sarcoma; [11]) is reported as 33.5 ± 0.6 days, the “Prolongation percentage of life (T/C %)” value (Meth A sarcoma; [11]) is reported as 119.2% and the “Number surviving after 40 days” value (Meth A sarcoma; [11]) is reported as 3. The Average day surviving (Meth A sarcoma; [12]) was 35.0 ± 0.9 days, the “Prolongation percentage of life (T/C %)” value (Meth A sarcoma; [12]) was 124.6% and the “Number surviving after 40 days” value (Meth A sarcoma; [12]) was 5. The Average day surviving (Meth A sarcoma; [13]) was 37.3 ± 0.4 days, the “Prolongation percentage of life (T/C %)” value (Meth A sarcoma; [14]) was 132.7% and the “Number surviving after 40 days” value (Meth A sarcoma; [13]) was 7. For the same compound, the Average day surviving (Meth A sarcoma; [15]) was 39.8 ± 0.1 days, the “Prolongation percentage of life (T/C %)” value (Meth A sarcoma; [16]) was 141.6% and the “Number surviving after 40 days” value (Meth A sarcoma; [15]) was 9.

In the case of CC(C)=CCc1cc(/C=C/C(=O)O)cc(CC=C(C)C)c1O [compound 2, sodium salt of 3-[4-hydroxy-3,5-bis(3-methyl-2-butenyl)phenyl]-2-propenoic acid], the Average day surviving (Meth A sarcoma; [11]) is reported as 32.3 ± 0.8 days, the “Prolongation percentage of life (T/C %)” value (Meth A sarcoma; [11]) is reported as 114.9% and the “Number surviving after 40 days” value (Meth A sarcoma; [11]) is reported as 2. The Average day surviving (Meth A sarcoma; [12]) was 36.5 ± 0.5 days, the “Prolongation percentage of life (T/C %)” value (Meth A sarcoma; [12]) was 129.9% and the “Number surviving after 40 days” value (Meth A sarcoma; [12]) was 6. For the same compound, the Average day surviving (Meth A sarcoma; [13]) was 38.1 ± 0.1 days, the “Prolongation percentage of life (T/C %)” value (Meth A sarcoma; [14]) was 135.6% and the “Number surviving after 40 days” value (Meth A sarcoma; [13]) was 8. The Average day surviving (Meth A sarcoma; [15]) was > 40.0 days, the “Prolongation percentage of life (T/C %)” value (Meth A sarcoma; [16]) was 142.3% and the “Number surviving after 40 days” value (Meth A sarcoma; [15]) was 10. The “Average tumor weight, on a wet cell basis” value (“Average tumor weight” for short) ([2]; 27th day after transplantation, control 2.06 ± 0.85, in g (unit assumed)) was 0.18 ± 0.02, the “Percentage surviving at judgement (%)” value ([2]; 35th day, control 42.8) was 100% and the “antitumor effect on human malignant tumors” value (human malignant tumors [3]) was “strong antitumor effect”. The “percentage surviving on the 35th day after the transplantation” value (human malignant tumors [3]) was “attained a desired percentage surviving”, the “Average tumor weight” value (HLC-1 cell (lung cancer); 27th day after transplantation, control 1.25 ± 0.81) was 0.124 ± 0.06 and the “Percentage surviving at judgement (%)” value (HLC-1 cell (lung cancer); 35th day, control 71.4) was 100%. The “Average tumor weight” value ([4]; 27th day after transplantation, control 1.36 ± 0.61, in g (unit assumed)) was 0.54 ± 0.06, the “Percentage surviving at judgement (%)” value ([4]; 35th day, control 100) was 100% and the “Average tumor weight” value (HL-60 cell (leukemia); 27th day after transplantation, control 1.43 ± 0.08, in g (unit assumed)) was 0.18 ± 0.03. For the same compound, the “Percentage surviving at judgement (%)” value (HL-60 cell (leukemia); 35th day, control 100) was 100%, the “Average tumor weight” value ([5]; 27th day after transplantation, control 2.12 ± 0.96, in g (unit assumed)) was 0.54 ± 0.03 and the “Percentage surviving at judgement (%)” value ([5]; 35th day, control 42.8) was 100%. The “Average tumor weight” value ([6]; 27th day after transplantation, control 2.16 ± 1.31, in g (unit assumed)) was 0.81 ± 0.65, the “Percentage surviving at judgement (%)” value ([6]; 35th day, control 42.8) was 100% and the “Average tumor weight” value ([7]; 27th day after transplantation, control 1.86 ± 0.64, in g (unit assumed)) was 0.35 ± 0.09. For the same compound, the “Percentage surviving at judgement (%)” value ([7]; 35th day, control 85.7) was 100%, the “Average tumor weight” value ([8]; 27th day after transplantation, control 1.96 ± 0.98, in g (unit assumed)) was 0.36 ± 0.02 and the “Percentage surviving at judgement (%)” value ([8]; 35th day, control 57.1) was 100%. The “Average tumor weight” value (U-937 cell (lymphoma); 27th day after transplantation, control 0.99 ± 0.81, in g (unit assumed)) was 0.25 ± 0.02, the “Percentage surviving at judgement (%)” value (U-937 cell (lymphoma); 35th day, control 85.7) was 100% and the “Average tumor weight” value ([9]; 27th day after transplantation, control 1.83 ± 0.85, in g (unit assumed)) was 0.36 ± 0.02. The “Percentage surviving at judgement (%)” value ([9]; 35th day, control 85.7) was 100%, the “Average tumor weight” value ([10]; 27th day after transplantation, control 2.95 ± 1.36, in g (unit assumed)) was 0.21 ± 0.03 and the “Percentage surviving at judgement (%)” value ([10]; 35th day, control 71.4) was 100%.

With CC(C)=CCc1cc(/C=C/C(=O)O)cc(CC=C(C)C)c1O [compound 3, calcium salt of 3-[4-hydroxy-3,5-bis(3-methyl-2-butenyl)phenyl]-2-propenoic acid] the Average day surviving (Meth A sarcoma; [11]) was 31.1 ± 0.6 days, the “Prolongation percentage of life (T/C %)” value (Meth A sarcoma; [11]) was 110.7% and the “Number surviving after 40 days” value (Meth A sarcoma; [11]) was 2. The Average day surviving (Meth A sarcoma; [12]) was 35.9 ± 0.3 days, the “Prolongation percentage of life (T/C %)” value (Meth A sarcoma; [12]) was 127.8% and the “Number surviving after 40 days” value (Meth A sarcoma; [12]) was 6. For the same compound, the Average day surviving (Meth A sarcoma; [13]) was 38.9 ± 0.2 days, the “Prolongation percentage of life (T/C %)” value (Meth A sarcoma; [14]) was 138.4% and the “Number surviving after 40 days” value (Meth A sarcoma; [13]) was 8. For the same compound, the Average day surviving (Meth A sarcoma; [15]) was 39.0 ± 0.2 days, the “Prolongation percentage of life (T/C %)” value (Meth A sarcoma; [16]) was 138.8% and the “Number surviving after 40 days” value (Meth A sarcoma; [15]) was 9.

In the case of CC(C)=CCc1cc(/C=C/C(=O)O)cc(CC=C(C)C)c1O [compound 4, magnesium salt of 3-[4-hydroxy-3,5-bis(3-methyl-2-butenyl)phenyl]-2-propenoic acid], the Average day surviving (Meth A sarcoma; [11]) is reported as 34.9 ± 0.3 days, the “Prolongation percentage of life (T/C %)” value (Meth A sarcoma; [11]) is reported as 124.2% and the “Number surviving after 40 days” value (Meth A sarcoma; [11]) is reported as 3. For the same compound, the Average day surviving (Meth A sarcoma; [12]) was 35.7 ± 0.4 days, the “Prolongation percentage of life (T/C %)” value (Meth A sarcoma; [12]) was 127.0% and the “Number surviving after 40 days” value (Meth A sarcoma; [12]) was 5. The Average day surviving (Meth A sarcoma; [13]) was 37.5 ± 0.2 days, the “Prolongation percentage of life (T/C %)” value (Meth A sarcoma; [14]) was 133.5% and the “Number surviving after 40 days” value (Meth A sarcoma; [13]) was 7. For the same compound, the Average day surviving (Meth A sarcoma; [15]) was > 40.0 days, the “Prolongation percentage of life (T/C %)” value (Meth A sarcoma; [16]) was 142.3% and the “Number surviving after 40 days” value (Meth A sarcoma; [15]) was 10.

With CC(C)=CCc1cc(/C=C/C(=O)O)cc(CC=C(C)C)c1O [compound 5, potassium salt of 3-[4-hydroxy-3,5-bis(3-methyl-2-butenyl)phenyl]-2-propenoic acid] the Average day surviving (Meth A sarcoma; [11]) was 32.6 ± 0.6 days, the “Prolongation percentage of life (T/C %)” value (Meth A sarcoma; [11]) was 116.0% and the “Number surviving after 40 days” value (Meth A sarcoma; [11]) was 2. The Average day surviving (Meth A sarcoma; [12]) was 36.1 ± 0.5 days, the “Prolongation percentage of life (T/C %)” value (Meth A sarcoma; [12]) was 128.5% and the “Number surviving after 40 days” value (Meth A sarcoma; [12]) was 6. For the same compound, the Average day surviving (Meth A sarcoma; [13]) was 38.2 ± 0.4 days, the “Prolongation percentage of life (T/C %)” value (Meth A sarcoma; [14]) was 135.9% and the “Number surviving after 40 days” value (Meth A sarcoma; [13]) was 8. For the same compound, the Average day surviving (Meth A sarcoma; [15]) was 39.2 ± 0.3 days, the “Prolongation percentage of life (T/C %)” value (Meth A sarcoma; [16]) was 139.5% and the “Number surviving after 40 days” value (Meth A sarcoma; [15]) was 9.

For O=c1c(O)c(-c2ccc(O)c(O)c2)oc2cc(O)cc(O)c12 [quercetin], the “antitumor activity on human malignant tumors” value (human malignant tumors [1]) is listed as “exerted an antitumor activity”.
